Data published in patent publication US20070112015A1, “Substituted dihydropyridines and methods of use” (ChemoCentryx, Inc., priority 2005, published 2007).

Biological target: T1, human C5a receptor (Homo sapiens, UniProt P21730)
T1 construct: expressed in transfected cells; alternatively isolated human neutrophils (endogenous receptor)
T1 sequence (P21730 1-350): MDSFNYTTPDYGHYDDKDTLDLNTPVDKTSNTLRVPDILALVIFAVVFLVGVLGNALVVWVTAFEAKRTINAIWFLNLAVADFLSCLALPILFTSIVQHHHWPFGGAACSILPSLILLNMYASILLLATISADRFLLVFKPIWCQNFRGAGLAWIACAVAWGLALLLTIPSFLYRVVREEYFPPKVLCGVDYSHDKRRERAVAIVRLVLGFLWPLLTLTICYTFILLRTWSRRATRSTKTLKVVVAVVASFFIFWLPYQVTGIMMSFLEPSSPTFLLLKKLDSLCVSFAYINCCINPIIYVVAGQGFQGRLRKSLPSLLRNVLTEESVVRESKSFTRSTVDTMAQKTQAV
Assay: Inhibition of C5aR ligand binding (125I labeled C5a)
Settings: 125I labeled C5a binding to C5aR expressing cells (L1.2 C5aR cells or neutrophils)
Description: L1.2 cells (ATCC #HB-12624) were transfected with a mammalian expression vector constitutively expressing the human C5a receptor (Genbank accession # NM_001736). A stable cell line was produced by selection with G418 for the co-expressed resistance marker. These cells were cultured as a suspension in RPMI-1640 medium supplemented with 2 mM L-glutamine, 1.5 g/L sodium bicarbonate, 4.5 g/L glucose, 10 mM HEPES, 1 mM sodium pyruvate, and 10% FBS. Cells were grown under 5% CO2/95% air, 100% humidity at 37° C. and subcultured twice weekly at 1:6 (cells were cultured at a density range of 1×10^5 to 2×10^6 cells/mL) and harvested at 1×10^6 cells/mL. L1.2 C5aR cells express C5a receptor and can be used in C5aR ligand binding and functional assays.
Neutrophils were isolated from fresh human blood using density separation and centrifigation. Briefly, whole blood is incubated with equal parts 3% dextran and allowed to separate for 45 minutes. After separation, the top layer is then layered on top of 15 mls of Ficoll (15 mls of Ficoll for every 30 mls of blood suspension) and centrifuged for 30 minutes at 400×g with no brake. The pellet at the bottom of the tube is then isolated and resuspended into PharmLyse RBC Lysis Buffer (BD Biosciences, San Jose, Calif.) after which the sample is again centrifuged for 10 minutes at 400×g with brake. The remaining cell pellet is resuspended as appropriate and consists of isolated neutrophils.
C5aR expressing cells were centrifuged and resuspended in assay buffer (20 mM HEPES pH 7.1, 140 mM NaCl, 1 mM CaCl2, 5 mM MgCl2, and with 0.2% bovine serum albumin) to a concentration of 5×10^6 cells/mL for L1.2 C5aR cells and […]. Binding assays were set up as follows. 0.1 mL of cells (5×10^5 L1.2 C5aR cells/well or 1×10^5 neutrophils) was added to the assay plates containing the compounds, giving a final concentration of ˜2-10 μM each compound for screening (or part of a dose response for compound IC50 determinations). Then 0.1 mL of ^125I labeled C5a (obtained from Perkin Elmer Life Sciences, Boston, Mass.) diluted in assay buffer to a final concentration of ˜50 pM, yielding ˜30,000 cpm per well, was added (using ^125I labeled C5a with L1.2 C5aR cells and with neutrophils), the plates sealed and incubated for approximately 3 hours at 4° C. on a shaker platform. Reactions were aspirated onto GF/B glass filters pre-soaked in 0.3% polyethyleneimine (PEI) solution, on a vacuum cell harvester (Packard Instruments; Meriden, Conn.). Scintillation fluid (40 μl; Microscint 20, Packard Instruments) was added to each well, the plates were sealed and radioactivity measured in a Topcount scintillation counter (Packard Instruments). Control wells containing either diluent only (for total counts) or excess C5a (1 µg/mL, for non-specific binding) were used to calculate the percent of total inhibition for compound. The computer program Prism from GraphPad, Inc. (San Diego, Calif.) was used to calculate IC50 values. IC50 values are those concentrations required to reduce the binding of radiolabeled C5a to the receptor by 50%. (For further descriptions of ligand binding and other functional assays, see Dairaghi, et al., J. Biol. Chem. 274:21569-21574 (1999), Penfold, et al., Proc. Natl. Acad. Sci. USA. 96:9839-9844 (1999), and Dairaghi, et al, J. Biol. Chem. 272:28206-28209 (1997)).
To evaluate small organic molecules that prevent the C5a receptor from binding ligand, an assay was employed that detected radioactive ligand (i.e, C5a) binding to cells expressing C5aR on the cell surface (for example, L1.2 C5AR cells or isolated human neutrophils). For compounds that inhibited binding, whether competitive or not, fewer radioactive counts are observed when compared to uninhibited controls.
Equal numbers of cells were added to each well in the plate. The cells were then incubated with radiolabeled C5a. Unbound ligand was removed by washing the cells, and bound ligand was determined by quantifying radioactive counts. […]

Compound	IC50 [µM]
CC1=C(C(=O)OC2CCCC2)C(c2cccc(O)c2)C2=C(CC(c3ccc4ccccc4c3)CC2=O)N1 (stereo not shown) [Compound 1.006]	< 1
CC1=C(C(=O)OC2CCCC2)C(c2cccc(O)c2)C2=C(CC(C3CCCCC3)CC2=O)N1 (stereo not shown) [Compound 1.004]	< 1
CC1=C(C(=O)OC2CCCC2)C(c2cccc(O)c2)C2=C(CC(c3ccc(C)c(F)c3)CC2=O)N1 (stereo not shown) [Compound 1.002]	< 1
CC1=C(C(=O)OC2CCCC2)C(c2cccc(O)c2)C2=C(CC(c3ccc(-c4ccccc4)cc3)CC2=O)N1 (stereo not shown) [Compound 1.005]	1 to 10
Cc1cc(C)c(C2CC(=O)C3=C(C2)NC(C2CC2)=C(C(=O)OC2CCCC2)C3c2cccc(O)c2)c(C)c1 (stereo not shown) [Compound 1.001]	< 1
CC1=C(C(=O)OC2CCCC2)C(c2cccc(O)c2)C2=C(CC(c3ccc(C(F)(F)F)cc3)CC2=O)N1 (stereo not shown) [Compound 1.003]	< 1

The next lines start with the values.

IC50 [µM]	Compound
< 1	CCOC(=O)C1=C(CCC2CCCC2)NC2=C(C(=O)CC(c3c(C)cc(C)cc3C)C2)C1c1cccc2[nH]ccc12 (stereo not shown) [Compound 1.008]
1 to 10	CC1=C(C(=O)OC2CCCC2)C(c2cccc(O)c2)C2=C(CN(c3ccccc3)CC2=O)N1 (stereo not shown) [Compound 1.007]
< 1	O=C1CC(c2ccc3c(c2)OCO3)CC2=C1C(c1cccc(O)c1)C(C(=O)OC1CCCC1)=C(CC1CCCC1)N2 (stereo not shown) [Compound 1.009]
1 to 10	CC(C)C1=C(C(=O)OC2CCCC2)C(c2cccc(O)c2)C2=C(CC(c3c(Cl)cncc3Cl)CC2=O)N1 (stereo not shown) [Compound 1.010]
